{"source": "patent US5244923A", "about": "“Use of 2-(phenoxypropanolamino) ethoxphenoxy-acetic acid and its derivatives to inhibit gastrointestinal motility” (Imperial Chemical Industries PLC, priority 1990, dated 1993)", "molecular_target": "\"atypical\" β-adrenoceptors (Cavia porcellus, UniProt Q3HNP5)", "sequence (Q3HNP5 1-379)": "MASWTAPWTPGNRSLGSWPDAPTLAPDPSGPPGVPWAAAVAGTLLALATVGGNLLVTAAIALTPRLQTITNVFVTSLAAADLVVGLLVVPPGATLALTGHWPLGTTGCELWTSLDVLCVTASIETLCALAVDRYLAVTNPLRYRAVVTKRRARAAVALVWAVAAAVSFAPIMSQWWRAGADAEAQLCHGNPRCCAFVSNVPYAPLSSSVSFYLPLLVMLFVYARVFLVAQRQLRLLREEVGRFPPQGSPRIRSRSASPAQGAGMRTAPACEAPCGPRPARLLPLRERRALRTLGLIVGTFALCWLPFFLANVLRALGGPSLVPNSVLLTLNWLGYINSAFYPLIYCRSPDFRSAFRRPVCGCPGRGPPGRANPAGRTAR", "experiment": "Relaxation of histamine-contracted guinea-pig ileum", "conditions": "histamine 0.5 μM contraction, propranolol 5 μM, atropine 1 μM, phentolamine 3 μM present, read-out: EC30 (concentration of agonist producing a relaxation equivalent to 30% histamine inhibition)", "note": "Counter-ions that a name gives are not always drawn."}
{"molecule": "COCCNC(=O)COc1ccc(OCCNC[C@H](O)COc2ccccc2)cc1", "note": "[(S)-4-[2-(2-hydroxy-3-phenoxypropylamino)ethoxy]-N-(2-methoxyethyl)phenoxyacetamide hydrochloride]", "values": [{"measurement": "EC30", "result": "940 ± 260", "unit": "nM"}]}
